Test results as given in ChEMBL document CHEMBL1201862, “PubChem BioAssay data set” (2004).
Activity calls are given as the source filed them. *1 amine or outer side, *2 acyl side, *3 side chain or, on linkers, in order; H or OH if unused. Where a SMILES comes first, the peptide text is derived from it. Bridges are numbered along the chain shown (N, C = ends). [ ]: non-standard residue; d: D form. The star is where a group is joined. X56 = CC(C)C(C)C(C(=O)[*:2])N(C)[*:1]; Picolinoyl(3-OH) = O=C(c1ncccc1O)*; NMePhg = CN[CH](C(=O)O)c1ccccc1; Hyp = O=C(O)[CH]1C[CH](O)CN1; Sar = CNCC(=O)O

What was measured:
[1] = HEp-2 cell cytotoxicity, dose response, cytotoxicity control for RSV inhibitor project, HTS (AID 2410); type: functional; settings: human respiratory syncytial virus
[2] = C. albicans growth with fluconazole, confirmation, fluorescence, retest (AID 2467); type: functional, cell-based
[3] = NIH-3T3 fibroblast cytotoxicity, dose response, cytotoxicity control, cell-based, fluorescence, Alamar Blue, secondary assay (AID 2327); type: functional;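 note: NIH-3T3 mouse fibroblasts cultured with fluconazole at 8 µg/mL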
Nonstructural protein 1 = Nonstructural protein 1 (Influenza A virus, UniProt Q194T2); type: functional, Influenza A virus (A/California/07/2009(H1N1))
[4] = Luminescence Cell-Based Dose Retest to Confirm Inhibitors of Cancer Stem Cells. [Related pubchem assays (depositor defined):AID2717, AID2721]; type: functional; settings: Homo sapiens
[5] = molecular target: FAD-linked sulfhydryl oxidase ALR (Homo sapiens, UniProt P55789); test: inhibitors of human ALR sulfhydryl oxidase, dose response, biochemical, H2O2 detection, luminescence, cherry-pick (AID 493248)
Large T antigen = Large T antigen (Simian virus 40, UniProt P03070); type: functional, Betapolyomavirus macacae;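 note: Confirmatory-stage PubChem screen for compounds that inhibit SV40 T antigen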
P388 = test: cells; type: functional; settings: Mus musculus
SN12K1 = test: cells; type: functional; settings: Homo sapiens
P388/ADR = test: cells; type: functional; settings: Mus musculus
cells [6] = type: functional, cell-based
cells [7] = type: functional, cell-based; remark: listed apart in the source
H9c2 = test: cells; type: functional, cell-based; settings: Rattus norvegicus, H9c2, Myocardium;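 note: confirmatory concentration-response retest of ultra-high-throughput screening hits for modulation of myocardial damage; cell death induced by hydrogen peroxide oxidative stress; compound pretreatment for 60 min then peroxide exposure for 2 h; potency is for protecting the cells against peroxide damage rather than for killing them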
[8] = molecular target: T1, Corticotropin-releasing factor receptor 2/Corticotropin-releasing factor-binding protein (Homo sapiens, UniProt P24387+Q13324); test: activators of CRF receptor 2 with binding protein – uHTS hits, confirmation (AID 602473); type: functional; settings: read-out: EC50_Mean
T1 sequence (Q13324 whole entry): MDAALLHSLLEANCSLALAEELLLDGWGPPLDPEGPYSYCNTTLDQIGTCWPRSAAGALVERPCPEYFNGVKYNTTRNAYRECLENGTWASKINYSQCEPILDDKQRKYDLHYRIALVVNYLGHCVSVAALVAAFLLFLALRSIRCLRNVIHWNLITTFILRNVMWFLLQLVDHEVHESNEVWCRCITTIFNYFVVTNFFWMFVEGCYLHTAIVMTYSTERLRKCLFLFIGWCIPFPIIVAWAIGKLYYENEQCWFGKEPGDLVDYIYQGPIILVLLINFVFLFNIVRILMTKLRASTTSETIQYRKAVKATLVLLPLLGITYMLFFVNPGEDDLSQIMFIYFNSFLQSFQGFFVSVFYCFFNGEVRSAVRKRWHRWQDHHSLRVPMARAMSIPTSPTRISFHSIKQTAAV
T1 sequence (P24387 whole entry): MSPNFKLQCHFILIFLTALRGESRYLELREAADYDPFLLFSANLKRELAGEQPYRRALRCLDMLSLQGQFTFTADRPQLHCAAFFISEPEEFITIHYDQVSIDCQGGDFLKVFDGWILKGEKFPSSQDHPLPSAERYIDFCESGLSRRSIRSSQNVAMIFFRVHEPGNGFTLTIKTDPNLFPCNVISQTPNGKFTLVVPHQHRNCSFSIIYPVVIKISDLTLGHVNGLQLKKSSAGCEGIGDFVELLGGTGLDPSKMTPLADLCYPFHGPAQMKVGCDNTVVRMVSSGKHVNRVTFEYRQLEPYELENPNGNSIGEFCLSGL

[9] = Luminescence Cell-Based Dose Confirmation HTS to Identify Inhibitors of Platelet Dense Granule Release. [Related pubchem assays: 1663 (Primary HTS), 1678 (Summary of Project)]; type: functional
[10] = molecular target: Luciferin 4-monooxygenase (Photinus pyralis, UniProt P08659); test: firefly luciferase enzyme inhibitors, dose response, biochemical, luminescence (AID 1891)
[11] = molecular target: T2, Polyadenylate-binding protein 1 (Homo sapiens, UniProt P11940); test: PABP1 MLLE–PAM2 interaction inhibitors, dose response, miRNA deadenylation inhibitor project, biochemical, fluorescence polarization, Cy5-PAM2 peptide, secondary (AID 602260); type: functional; settings: read-out: IC50_Mean
[12] = molecular target: T2, Polyadenylate-binding protein 1; test: PABP1 MLLE–PAM2 binding inhibitor potency, dose response, biochemical, fluorescence polarization, FITC-PAM2 peptide (AID 602259); type: functional; settings: read-out: IC50_Mean
BJ [13] = test: cells; type: functional, cell-based; settings: Homo sapiens
BJ [14] = test: cytotoxicity toward BJ-TERT-LT-ST fibroblasts, dose response, cell-based, RAS-independent, luminescence (AID 1935); type: functional; settings: Homo sapiens;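 note: BJ fibroblasts immortalized with TERT plus LT and ST oncogenes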
[15] = cytotoxicity toward DRD oncogenic fibroblasts, dose response, cell-based, non-viral oncogenic, luminescence (AID 1934); type: functional; settings: Homo sapiens
BJ [16] = test: cytotoxicity toward BJ-TERT fibroblasts, dose response, cell-based, RAS-independent, luminescence (AID 1933); type: functional; settings: Homo sapiens
[17] = molecular target: T3, Ubiquitin-conjugating enzyme E2 N (Homo sapiens, UniProt P61088); type: functional;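 note: Dose-response confirmation in a TR-FRET assay detecting UBC13-driven polyubiquitin chain formation, inhibition measured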
T3 sequence (P61088 whole entry): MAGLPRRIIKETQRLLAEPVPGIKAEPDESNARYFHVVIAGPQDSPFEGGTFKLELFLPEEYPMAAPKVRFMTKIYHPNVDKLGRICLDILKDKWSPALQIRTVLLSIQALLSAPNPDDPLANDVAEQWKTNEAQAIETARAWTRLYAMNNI

Cytochrome P450 2D6 = Cytochrome P450 2D6 (Homo sapiens, UniProt P10635);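 note: CYP2D6 member of a cytochrome P450 panel assay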
Cytochrome P450 2D6, sequence (P10635 whole entry): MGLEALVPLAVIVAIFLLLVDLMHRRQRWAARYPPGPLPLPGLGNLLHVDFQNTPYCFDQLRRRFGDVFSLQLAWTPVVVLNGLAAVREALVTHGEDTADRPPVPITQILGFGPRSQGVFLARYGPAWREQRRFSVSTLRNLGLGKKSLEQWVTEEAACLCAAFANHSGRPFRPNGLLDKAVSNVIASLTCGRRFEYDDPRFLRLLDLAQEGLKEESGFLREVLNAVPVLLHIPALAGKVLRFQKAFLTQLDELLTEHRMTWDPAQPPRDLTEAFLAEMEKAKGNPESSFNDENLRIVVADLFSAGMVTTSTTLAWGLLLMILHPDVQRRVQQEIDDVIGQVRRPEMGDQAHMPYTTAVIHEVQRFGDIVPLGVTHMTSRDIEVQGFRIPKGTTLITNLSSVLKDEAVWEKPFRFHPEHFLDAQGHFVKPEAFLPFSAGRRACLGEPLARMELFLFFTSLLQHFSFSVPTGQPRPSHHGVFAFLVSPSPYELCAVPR

Luciferin 4-monooxygenase, sequence (P08659 whole entry): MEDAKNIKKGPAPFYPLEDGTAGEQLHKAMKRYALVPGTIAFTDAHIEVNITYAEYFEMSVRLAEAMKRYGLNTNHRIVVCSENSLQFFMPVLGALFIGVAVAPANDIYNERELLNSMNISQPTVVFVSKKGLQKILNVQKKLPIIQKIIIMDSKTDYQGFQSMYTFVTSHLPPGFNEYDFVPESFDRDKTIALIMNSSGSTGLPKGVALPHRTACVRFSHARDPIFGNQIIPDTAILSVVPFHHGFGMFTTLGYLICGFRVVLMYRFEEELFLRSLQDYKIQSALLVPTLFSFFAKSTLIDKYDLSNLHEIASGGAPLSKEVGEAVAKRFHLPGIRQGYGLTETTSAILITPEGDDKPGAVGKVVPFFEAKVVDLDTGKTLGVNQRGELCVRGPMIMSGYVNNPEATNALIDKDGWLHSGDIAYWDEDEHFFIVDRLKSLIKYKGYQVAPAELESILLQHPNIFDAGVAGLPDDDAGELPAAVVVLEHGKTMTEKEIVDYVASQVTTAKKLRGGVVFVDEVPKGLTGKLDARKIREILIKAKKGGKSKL
Nonstructural protein 1, sequence (Q194T2 whole entry): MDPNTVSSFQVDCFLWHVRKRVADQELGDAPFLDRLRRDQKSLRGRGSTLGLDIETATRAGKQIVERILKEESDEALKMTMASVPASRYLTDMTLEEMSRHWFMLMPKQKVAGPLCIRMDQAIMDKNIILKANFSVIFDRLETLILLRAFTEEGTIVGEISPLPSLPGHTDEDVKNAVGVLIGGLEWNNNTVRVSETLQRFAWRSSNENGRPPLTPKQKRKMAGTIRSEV
FAD-linked sulfhydryl oxidase ALR, sequence (P55789 whole entry): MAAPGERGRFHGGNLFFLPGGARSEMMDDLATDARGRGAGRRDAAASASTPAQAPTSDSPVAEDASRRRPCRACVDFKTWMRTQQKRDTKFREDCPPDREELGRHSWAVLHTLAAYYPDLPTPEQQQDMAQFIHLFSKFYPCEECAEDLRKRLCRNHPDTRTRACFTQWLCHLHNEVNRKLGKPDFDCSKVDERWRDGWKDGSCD
T2 sequence (P11940 whole entry): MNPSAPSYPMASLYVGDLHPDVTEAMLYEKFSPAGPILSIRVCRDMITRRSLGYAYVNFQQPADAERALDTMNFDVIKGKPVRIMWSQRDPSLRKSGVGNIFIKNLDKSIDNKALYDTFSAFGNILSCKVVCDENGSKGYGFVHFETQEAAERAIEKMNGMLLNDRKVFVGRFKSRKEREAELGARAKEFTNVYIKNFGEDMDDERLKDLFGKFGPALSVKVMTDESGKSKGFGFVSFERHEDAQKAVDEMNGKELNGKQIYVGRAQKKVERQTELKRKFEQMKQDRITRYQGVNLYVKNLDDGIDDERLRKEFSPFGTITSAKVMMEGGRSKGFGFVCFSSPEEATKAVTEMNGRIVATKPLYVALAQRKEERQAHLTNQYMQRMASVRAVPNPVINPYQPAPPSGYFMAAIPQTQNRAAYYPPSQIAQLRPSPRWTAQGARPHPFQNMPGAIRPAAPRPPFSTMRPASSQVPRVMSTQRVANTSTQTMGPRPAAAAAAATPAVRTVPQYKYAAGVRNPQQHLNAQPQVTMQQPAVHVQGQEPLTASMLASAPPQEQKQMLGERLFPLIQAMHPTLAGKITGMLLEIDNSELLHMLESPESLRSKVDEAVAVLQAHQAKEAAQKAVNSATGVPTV
Large T antigen, sequence (P03070 whole entry): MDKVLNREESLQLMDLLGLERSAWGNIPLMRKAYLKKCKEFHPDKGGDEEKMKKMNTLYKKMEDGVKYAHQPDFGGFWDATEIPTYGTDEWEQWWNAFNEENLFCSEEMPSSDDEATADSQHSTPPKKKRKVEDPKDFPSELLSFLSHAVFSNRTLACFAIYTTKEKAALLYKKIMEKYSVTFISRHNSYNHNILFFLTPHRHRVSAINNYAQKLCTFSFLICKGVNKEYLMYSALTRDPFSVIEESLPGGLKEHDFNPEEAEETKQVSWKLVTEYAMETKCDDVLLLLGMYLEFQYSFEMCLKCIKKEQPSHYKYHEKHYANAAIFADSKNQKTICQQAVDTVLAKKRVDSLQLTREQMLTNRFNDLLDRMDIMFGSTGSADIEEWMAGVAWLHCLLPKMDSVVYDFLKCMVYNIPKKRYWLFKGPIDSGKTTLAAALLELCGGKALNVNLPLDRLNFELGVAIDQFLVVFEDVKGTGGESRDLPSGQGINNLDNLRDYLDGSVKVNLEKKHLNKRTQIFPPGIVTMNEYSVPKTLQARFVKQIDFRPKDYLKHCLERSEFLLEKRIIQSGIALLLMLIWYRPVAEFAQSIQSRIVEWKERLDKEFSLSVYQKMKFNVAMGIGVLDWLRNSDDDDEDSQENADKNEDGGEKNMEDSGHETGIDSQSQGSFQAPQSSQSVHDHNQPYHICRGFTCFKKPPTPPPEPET

Cc1cc(OC(=O)c2ccco2)c2c3c(c(=O)oc2c1)CCCC3
CC50 [1]: 33.1 µM (active)
EC50 [2]: 5.16 µM (active)
EC50 [3]: > 160 µM (inactive)

COc1ccc(Cc2nnc(N/N=C/c3ccc(O)cc3O)nc2O)cc1OC
IC50 (Nonstructural protein 1): 1.78 µM (active)
AC50 [4]: 8.28 µM (active)

O=C(N/N=C/c1ccc(O)c(O)c1)C1CC1
AC50 [5]: 0.127 µM (active)
IC50 (Large T antigen): 5.55 µM (active)

COc1ccc(C2C3CCCC(C3=O)C(c3ccc(OC)cc3)N2N=O)cc1 (stereo not drawn)
GI50 (P388): 19.9 µM (inactive)
GI50 (SN12K1): 30.5 µM (inactive)
GI50 (P388/ADR): 17.9 µM (inactive)

CCCCC#CS(=O)(=O)C(F)(F)F
GI50 (P388): 19.7 µM (inactive)
GI50 (SN12K1): 51.9 µM (inactive)
GI50 (P388/ADR): 27.7 µM (inactive)

CC1(C)CC(=O)C(/C=N/CCN2CCN(C(=S)Nc3cccc(Cl)c3)CC2)=C(O)C1
EC50 (cells [6]): > 350 µM (not active)
EC50 (cells [7]): > 350 µM (not active)

Cn1c(N)c(N2CCN(c3ccccc3)CC2)c(=O)[nH]c1=O
AC50 [5]: 3.9 µM (active)

COC(=O)c1c(C)[nH]c(O)c1/C=N/c1ccc(Oc2ccccc2)cc1
IC50 (H9c2): > 79 µM (inactive)
EC50 [8]: > 53 µM (inactive)

Cc1nc(C#N)c(N/N=C/c2c(F)cccc2Cl)o1
AC50 [5]: 2.54 µM (active)

O=C(C1CCCN(S(=O)(=O)c2cccc3nonc23)C1)N1CCN(c2ccccc2Cl)CC1 (stereo not drawn)
IC50 (Nonstructural protein 1): > 100 µM (active)

N#C/C(=C\c1ccc(O)cc1)C(N)=O
GI50 (P388): > 100 µM (inactive)
GI50 (SN12K1): > 100 µM (inactive)
GI50 (P388/ADR): > 100 µM (inactive)

Cc1c(Cl)c([N+](=O)[O-])nn1CC(=O)NC12CC3CC(CC(C3)C1)C2
EC50 (cells [6]): > 350 µM (not active)
EC50 (cells [7]): > 350 µM (not active)

CC(C)CC1NC(=O)C(NC(=O)c2ncccc2O)C(C)OC(=O)C(c2ccccc2)N(C)C(=O)C(C)NC(=O)C(C(C)C(C)C)N(C)C(=O)CN(C)C(=O)C2CC(O)CN2C1=O (stereo not drawn) ({Picolinoyl(3-OH)}-TL[Hyp][Sar][X56]A[NMePhg]; ester 1-C; configuration not given here)
GI50 (P388): 6.21 µM (inactive)
GI50 (SN12K1): 51.3 µM (inactive)
GI50 (P388/ADR): > 109 µM (inactive)

COC(=O)c1sccc1NC(=O)Nc1ccc(F)cc1
EC50 [9]: 1.67 µM (active)
EC50 [10]: 0.535 µM (active)

NC(=O)c1cc2c3ccccc3ccn2c1-c1ccccc1
IC50 [11]: > 66 µM (inactive)
IC50 [12]: 32.2 µM (inactive)
EC50 (BJ [13]): 27.4 µM (inconclusive)
EC50 (BJ [14]): 5.08 µM (inconclusive)
EC50 [15]: 0.244 µM (active)
EC50 (BJ [16]): 0.305 µM (active)

CCc1ccc(C(=O)Nn2c(C)nc3ccccc3c2=O)cc1
IC50 [17]: > 20 µM (inactive)

COC(=O)CCCC1=CC2=CC(=O)C(C)(OC(=O)c3cccs3)C(=O)C2=CN1Cc1ccc2c(c1)OCO2 (stereo not drawn)
EC50 (cells [6]): > 350 µM (not active)
EC50 (cells [7]): > 350 µM (not active)

OC(CNCc1cccc(Br)c1)c1ccccc1 (stereo not drawn)
EC50 [9]: 20.7 µM (active)
EC50 [10]: > 112 µM (not active)

COc1ccc(NC(=O)CCS(=O)(=O)c2ccc3nc(C)sc3c2)cc1OC
EC50 [9]: > 112 µM (not active)
EC50 [10]: > 112 µM (not active)

COc1ccc(C(C(=O)NCc2ccccc2)N(Cc2cccs2)C(=O)c2cnccn2)cc1 (stereo not drawn)
AC50 (Cytochrome P450 2D6): 31.6 µM (inconclusive)
IC50 (H9c2): > 79 µM (inactive)

O=C(CSc1nc(-c2ccccc2)cs1)NCc1ccco1
EC50 [9]: > 112 µM (not active)
EC50 [10]: > 112 µM (not active)

O=C1/C(=C\c2cccnc2)SC(=S)N1C1CCS(=O)(=O)C1 (stereo not drawn)
EC50 (BJ [13]): > 150 µM (inconclusive)
EC50 (BJ [14]): > 150 µM (not active)
EC50 [15]: 20.4 µM (active)
EC50 (BJ [16]): 22.5 µM (active)
EC50 [2]: 0.479 µM (active)

COc1cc(OC)c2c(-c3ccccc3)cc(=O)oc2c1C(CCN1CCCC(C)C1)c1ccc(N(C)C)cc1 (stereo not drawn)
IC50 (Nonstructural protein 1): 11.4 µM (active)
